Results published in US7247634B2, “Rifamycin derivatives effective against drug-resistant microbes” (Cumbre Pharmaceuticals Inc., priority 2004, dated 2007).
Converted amounts (≈) assume the structure as drawn.

Assays:
Type in all cases: cell-based
[1] = test system: Staphylococcus epidermidis ATCC12228; assay: MIC, microbroth dilution (NCCLS); settings: rifS strain, Cation-Adjusted Mueller-Hinton Broth, 37° C., read-out: Antimicrobial activity (MIC)
[2] = test system: Escherichia coli ATCC25922; assay: MIC, microbroth dilution (NCCLS); settings: rifS strain, Cation-Adjusted Mueller-Hinton Broth, 37° C., read-out: Antimicrobial activity (MIC)
[3] = test system: Staphylococcus aureus ATCC29213; assay: MIC, microbroth dilution (NCCLS); settings: rifS strain, Cation-Adjusted Mueller-Hinton Broth, 37° C., read-out: Antimicrobial activity (MIC)
[4] = test system: Staphylococcus aureus EN1252a gyrA^S84L grlA^S80F; assay: microbe, parasite or virus in culture; settings: read-out: Antimicrobial activity (MIC)
Procedure, shortened: (§1)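 MICs by NCCLS broth microdilution, incubation at 37 °C, in cation-adjusted Mueller-Hinton broth. Strains: rifampin-resistant S. aureus ATCC 29213 with rpoB D417Y or H418Y, and quinolone-resistant EN1252a carrying gyrA S84L plus grlA S80F.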

[5] = test system: Staphylococcus aureus ATCC29213 rpoB^H418Y; assay: microbe, parasite or virus in culture; settings: ATCC29213, read-out: Antimicrobial activity (MIC)
Procedure, shortened: as §1

[6] = test system: Staphylococcus aureus ATCC29213 rpoB^D417Y; assay: microbe, parasite or virus in culture; settings: ATCC29213, read-out: Antimicrobial activity (MIC)
Procedure, shortened: as §1

[7] = test system: Haemophilus influenzae ATCC10211; assay: MIC, microbroth dilution (NCCLS); settings: rifS strain, BHI Broth with NAD and hematin, 37° C., read-out: Antimicrobial activity (MIC)
[8] = test system: Streptococcus pyogenes ATCC19615; assay: MIC, microbroth dilution (NCCLS); settings: rifS strain, THY Broth, 37° C., read-out: Antimicrobial activity (MIC)
[9] = test system: Enterococcus faecalis ATCC29212; assay: MIC, microbroth dilution (NCCLS); settings: rifS strain, BHI Broth, 37° C., read-out: Antimicrobial activity (MIC)
[10] = test system: Streptococcus pneumoniae ATCC6303; assay: MIC, microbroth dilution (NCCLS); settings: rifS strain, THY Broth with 1 mg/mL catalase, 5% CO2, 37° C., read-out: Antimicrobial activity (MIC)
[11] = test system: Mycobacterium smegmatis ATCC700084; assay: MIC, microbroth dilution (NCCLS); settings: Mycolicibacterium smegmatis, rifS strain, Middlebrook Broth plus ADC Enrichment, 37° C., read-out: Antimicrobial activity (MIC)

Molecule `CO[C@H]1/C=C/O[C@@]2(C)Oc3c(C)c(O)c4c(c3C2=O)C(=O)C(NCCN2CCN(c3ccc(N5C[C@H](CNC(C)=O)OC5=O)cc3F)CC2)=C(NC(=O)/C(C)=C\C=C\[C@H](C)[C@H](O)[C@@H](C)[C@@H](O)[C@@H](C)[C@H](OC(C)=O)[C@@H]1C)C4=O` [Example 24, (S)-3-[4-[4-(5-Acetylaminomethyl-2-oxo-oxazolidin-3-yl)-2-fluoro-phenyl]-piperazin-1-ylethylamino]-rifamycin S] has an MIC [1] of 0.008 to 0.063 mg/L (≈ 0.00745 to 0.0587 µM), an MIC [2] of 0.125 to 8 mg/L (≈ 0.116 to 7.45 µM) and an MIC [3] of 0.004 to 0.5 mg/L (≈ 0.00373 to 0.466 µM). It also gave an MIC [4] of 0.004 to 0.5 mg/L (≈ 0.00373 to 0.466 µM), an MIC [5] of 0.06 to 16 mg/L (≈ 0.0559 to 14.9 µM) and an MIC [6] of 0.06 to 32 mg/L (≈ 0.0559 to 29.8 µM). For the same molecule, the MIC [7] was 0.125 to 2 mg/L (≈ 0.116 to 1.86 µM), the MIC [8] was 0.008 to 0.063 mg/L (≈ 0.00745 to 0.0587 µM) and the MIC [9] was 2 to 32 mg/L (≈ 1.86 to 29.8 µM). It also gave an MIC [10] of 0.008 to 0.125 mg/L (≈ 0.00745 to 0.116 µM) and an MIC [11] of 0.5 to 64 mg/L.
Work on `CO[C@H]1/C=C/O[C@@]2(C)Oc3c(C)c(O)c4c(c3C2=O)C(=O)C(NCC2CN(c3cc5c(cc3F)c(=O)c(C(=O)O)cn5C3CC3)C2)=C(NC(=O)/C(C)=C\C=C\[C@H](C)[C@H](O)[C@@H](C)[C@@H](O)[C@@H](C)[C@H](OC(C)=O)[C@@H]1C)C4=O` [Example 25, 3-[1-(3-Carboxy-1-cyclopropyl-6-fluoro-4-oxo-1,4-dihydroquinolin-7-yl)azetidin-3-methylamino)rifamycin S] yielded an MIC [1] of 0.008 to 0.063 mg/L (≈ 0.0078 to 0.0615 µM), an MIC [2] of 0.125 to 8 mg/L (≈ 0.122 to 7.8 µM) and an MIC [3] of 0.004 to 0.5 mg/L (≈ 0.0039 to 0.488 µM). It also gave an MIC [4] of 0.004 to 0.5 mg/L (≈ 0.0039 to 0.488 µM), an MIC [5] of 0.06 to 16 mg/L (≈ 0.0585 to 15.6 µM) and an MIC [6] of 0.06 to 32 mg/L (≈ 0.0585 to 31.2 µM). For the same molecule, the MIC [7] was 0.125 to 2 mg/L (≈ 0.122 to 1.95 µM), the MIC [8] was 0.008 to 0.063 mg/L (≈ 0.0078 to 0.0615 µM) and the MIC [9] was 2 to 32 mg/L (≈ 1.95 to 31.2 µM). For the same molecule, the MIC [10] was 0.008 to 0.125 mg/L (≈ 0.0078 to 0.122 µM) and the MIC [11] was 0.5 to 64 mg/L.
With `COc1c(N2CCN(C3=C4NC(=O)/C(C)=C\C=C\[C@H](C)[C@H](O)[C@@H](C)[C@@H](O)[C@@H](C)[C@H](OC(C)=O)[C@H](C)[C@@H](OC)/C=C/O[C@@]5(C)Oc6c(C)c(O)c(c(c6C5=O)C3=O)C4=O)CC2)c(F)cc2c(=O)c(C(=O)O)cn(C3CC3)c12` [Example 26, 3-[4-(3-Carboxy-1-cyclopropyl-6-fluoro-8-methoxy-4-oxo-1,4-dihydroquinolin-7-yl)-piperazin-1-yl]rifamycin S] the MIC [1] was 0.008 to 0.063 mg/L (≈ 0.00758 to 0.0597 µM), the MIC [2] was 0.125 to 8 mg/L (≈ 0.118 to 7.58 µM) and the MIC [3] was 0.004 to 0.5 mg/L (≈ 0.00379 to 0.474 µM). For the same molecule, the MIC [4] was 0.004 to 0.5 mg/L (≈ 0.00379 to 0.474 µM), the MIC [5] was 0.06 to 16 mg/L (≈ 0.0569 to 15.2 µM) and the MIC [6] was 0.06 to 32 mg/L (≈ 0.0569 to 30.3 µM). It also gave an MIC [7] of 0.125 to 2 mg/L (≈ 0.118 to 1.9 µM), an MIC [8] of 0.008 to 0.063 mg/L (≈ 0.00758 to 0.0597 µM) and an MIC [9] of 2 to 32 mg/L (≈ 1.9 to 30.3 µM). For the same molecule, the MIC [10] was 0.008 to 0.125 mg/L (≈ 0.00758 to 0.118 µM) and the MIC [11] was 0.5 to 64 mg/L.
With `COc1c(N2CCN(C3CCN(C4=C5NC(=O)/C(C)=C\C=C\[C@H](C)[C@H](O)[C@@H](C)[C@@H](O)[C@@H](C)[C@H](OC(C)=O)[C@H](C)[C@@H](OC)/C=C/O[C@@]6(C)Oc7c(C)c(O)c(c(c7C6=O)C4=O)C5=O)CC3)CC2)c(F)cc2c(=O)c(C(=O)O)cn(C3CC3)c12` [Example 31, 3-{4-[1-(3-Carboxy-1-cyclopropyl-6-fluoro-8-methoxy-4-oxo-1,4-dihydroquinolin-7-yl)-piperazin-4-yl]-piperidin-1-yl}rifamycin S] the MIC [1] was 0.008 to 0.063 mg/L (≈ 0.00703 to 0.0553 µM), the MIC [2] was 0.125 to 8 mg/L (≈ 0.11 to 7.03 µM) and the MIC [3] was 0.004 to 0.5 mg/L (≈ 0.00351 to 0.439 µM). It also gave an MIC [4] of 0.004 to 0.5 mg/L (≈ 0.00351 to 0.439 µM), an MIC [5] of 0.06 to 16 mg/L (≈ 0.0527 to 14.1 µM) and an MIC [6] of 0.06 to 32 mg/L (≈ 0.0527 to 28.1 µM). The MIC [7] was 0.125 to 2 mg/L (≈ 0.11 to 1.76 µM), the MIC [8] was 0.008 to 0.063 mg/L (≈ 0.00703 to 0.0553 µM) and the MIC [9] was 2 to 32 mg/L (≈ 1.76 to 28.1 µM). It also gave an MIC [10] of 0.008 to 0.125 mg/L (≈ 0.00703 to 0.11 µM) and an MIC [11] of 0.5 to 64 mg/L.
